In US5220017A, “Cholecystokinin antagonists” (Merck & Co., Inc., priority 1992, dated 1993):
Non-standard residues stand in square brackets, D forms with d. Residues, ends and D or L forms follow the SMILES beside them. *: point of attachment. sY = N[C@@H](Cc1ccc(OS(=O)(=O)O)cc1)C(=O)O; Cbz = O=C(OCc1ccccc1)*; Boc = CC(C)(C)OC(=O)*

Columns and labels:
[1] = molecular target: T1, CCK receptor (rat pancreas) (Rattus norvegicus, UniProt P30551); test: CCK Receptor Binding (Pancreas), 125I-CCK-8 displacement; parameters: species or system rat (male Sprague-Dawley)
T1 construct: The whole pancreas was dissected free of fat tissue and was homogenized; from tissue; host or cells: whole pancreas membranes, male Sprague-Dawley rat
T1 sequence (P30551 1-444): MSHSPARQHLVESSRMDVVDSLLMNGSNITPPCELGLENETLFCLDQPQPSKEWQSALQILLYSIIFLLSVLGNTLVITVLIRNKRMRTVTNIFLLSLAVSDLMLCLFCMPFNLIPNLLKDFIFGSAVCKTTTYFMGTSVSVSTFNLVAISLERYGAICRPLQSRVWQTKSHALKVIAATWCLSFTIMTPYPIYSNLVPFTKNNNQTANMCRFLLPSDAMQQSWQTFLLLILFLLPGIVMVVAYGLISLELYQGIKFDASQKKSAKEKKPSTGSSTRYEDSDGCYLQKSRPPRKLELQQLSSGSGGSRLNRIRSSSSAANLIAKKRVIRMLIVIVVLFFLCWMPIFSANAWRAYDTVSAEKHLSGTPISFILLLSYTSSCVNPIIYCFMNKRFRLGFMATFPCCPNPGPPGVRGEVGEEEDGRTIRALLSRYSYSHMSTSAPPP
Method: 1. CCK Receptor Binding (Pancreas)
CCK-8 sulphated was radiolabelled with ^125 I-Bolton Hunter reagent (2000 Ci/mmole). Receptor binding was performed according to Chang and Lotti (Proc. Natl. Acad. Sci. 83, 4923-4926, 1986) with minor modifications.
Male Sprague-Dawley rats (150-200 g) were sacrificed by decapitation. The whole pancreas was dissected free of fat tissue and was homogenized in 25 volumes of ice-cold 10 mM Hepes buffer with 0.1% soya bean trypsin inhibitor (pH 7.4 at 25° C.) with a Kinematica Polytron. The homogenates were centrifuged at 47,800 g for 10 min. Pellets were resuspended in 10 volumes of binding assay buffer (20 mM Hepes, 1 mM EGTA, 5 mM MgCl2, 150 mM NaCl, bacitracin 0.25 mg/ml, soya bean trypsin inhibitor 0.1 mg/ml, and bovine serum albumin 2 mg/ml, pH 6.5 at 25° C.) using a teflon homogenizer, 15 strokes at 500 rpm. The homogenate was further diluted in binding assay buffer to give a final concentration of 0.5 mg original wet weight/1 ml buffer. […] All assays were run in duplicate. […] The radioactivity on the filters was counted with a LKB gamma counter. […]
(§1) Drug displacement studies were performed with at least 10 concentrations of compounds of formula 1 and the IC50 values were determined by regression analysis.

[2] = molecular target: T2, CCK receptor (guinea pig brain cortex) (Cavia porcellus, UniProt H0VZC5); test: CCK Receptor Binding (Brain), 125I-CCK-8 displacement; parameters: species or system guinea pig (male Hartley); conditions: guinea pig cortex membranes, 50 pM 125I-CCK-8, 25° C., 2 hours, pH 6.5
T2 construct: the cortex was removed and homogenized in 25 mL ice-cold 0.32M sucrose; from tissue; host or cells: brain cortex P2 membranes, male Hartley guinea pig
T2 sequence (H0VZC5 1-426): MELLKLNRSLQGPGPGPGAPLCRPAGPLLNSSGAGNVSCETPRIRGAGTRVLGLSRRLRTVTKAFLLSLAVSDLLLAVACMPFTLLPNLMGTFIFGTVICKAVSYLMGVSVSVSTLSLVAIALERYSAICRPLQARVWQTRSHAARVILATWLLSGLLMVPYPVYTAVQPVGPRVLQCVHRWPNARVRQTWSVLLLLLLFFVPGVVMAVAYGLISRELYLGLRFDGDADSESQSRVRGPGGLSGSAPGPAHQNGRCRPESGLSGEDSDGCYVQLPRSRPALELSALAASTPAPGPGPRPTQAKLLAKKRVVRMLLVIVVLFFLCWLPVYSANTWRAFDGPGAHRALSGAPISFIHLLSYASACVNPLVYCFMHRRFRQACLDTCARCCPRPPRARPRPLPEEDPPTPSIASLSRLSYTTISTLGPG
Method: 2. CCK Receptor Binding (Brain)
CCK-8 sulphated was radiolabelled and the binding was performed according to the description for the pancreas method with minor modifications.
Male Hartley guinea pigs (300-500 g) were sacrificed by decapitation and the cortex was removed and homogenized in 25 mL ice-cold 0.32M sucrose. The homogenates were centrifuged at 1000 g for 10 minutes and the resulting supernatant was recentrifuged at 20,000 g for 20 minutes. […] All assays were run in duplicate. The reaction mixtures were incubated at 25° C. for 2 hours and then the reaction was terminated on Whatman GF/C filters by rapid filtration (Brandell 24 well cell Harvester) with 3×5 ml washes of cold 100 mM NaCl. The radioactivity on the filters was then counted with a LKB gamma counter.
Effect of The Compounds of Formula I on ^125 I-CCK-8 receptor binding
as §1

CCK receptor = conditions: literature, in words; cited from earlier work
CCK-B receptors = conditions: literature, in words; cited from earlier work
gastrin = conditions: literature, in words; cited from earlier work

In the case of `Cc1cccc(N(CCC(=O)O)C(=O)NC2N=C(c3ccccc3)c3ccccc3N(C)C2=O)c1` (stereo not shown) [Example 1, N-{1,3-Dihydro-1-methyl-2-oxo-5-phenyl-1H-1,4-benzodiazepin-3-yl}-N'-carboxyethyl-N'-{[3-methylphenyl]-urea}], the IC50 [1] is reported as > 3 µM and the IC50 [2] is reported as 3.68 µM.
For `CCCC(=O)Nc1nc2c(ncn2C2O[C@H]3COP(=O)(O)O[C@@H]3[C@@H]2OC(=O)CCC)c(=O)[nH]1` (stereo partly shown) [dibutyryl cyclic GMP], the CCK antagonist/agonist character (CCK receptor) is given as “most potent”.
For `CSCC[C@H](NC(=O)[C@H](Cc1ccc(OS(=O)(=O)O)cc1)NC(=O)OCc1ccccc1)C(=O)NCC(=O)N[C@@H](Cc1c[nH]c2ccccc12)C(=O)N[C@@H](CCSC)C(=O)N[C@@H](CC(=O)O)C(N)=O` [Cbz-Tyr(SO3 H)-Met-Gly-Trp-Met-Asp-NH2] (Cbz-[sY]MGWMD-NH2), the CCK antagonist/agonist character (CCK receptor) is listed as “partial agonist”.
In the case of `Cc1cccc(NC(=O)N(CCC(=O)O)C2N=C(c3ccccc3)c3ccccc3N(C)C2=O)c1` (stereo not shown) [Example 2, N-{1,3-Dihydro-1-methyl-2-oxo-5-phenyl-1H-1,4-benzodiazepin-3-yl}-N-carboxyethyl-N'-{[3-methylphenyl]-urea}], the IC50 [1] is reported as > 3 µM and the IC50 [2] is reported as 0.51 µM.
In the case of `Cc1cccc(NC(=O)N[C@@H]2N=C(c3ccccc3)c3ccccc3N(C)C2=O)c1` [(R)-N-(2,3-dihydro-1-methyl-2-oxo-5-phenyl-1H-1,4-benzodiazepin-3-yl)-N^1-(3-methylphenyl) urea], the “CCK-B antagonist potency and selectivity” value (CCK-B receptors) is listed as “potent and selective antagonist of CCK-B receptors”.
For `CCCN(CCC)C(=O)C(CCC(=O)O)NC(=O)c1ccccc1` (stereo not shown) [proglumide], the “gastrin antagonism in vitro” value (gastrin) is listed as “very weak in vitro antagonists”.
In the case of `CSCC[C@H](NC(=O)OC(C)(C)C)C(=O)N[C@@H](CC(=O)O)C(=O)N[C@@H](Cc1ccccc1)C(N)=O` [Boc-Met-Asp-Phe-NH2] (Boc-Met-Asp-Phe-NH2), the CCK antagonist/agonist character (CCK receptor) is listed as “can function as CCK antagonists”.
For `CSCC[C@H](N)C(=O)N[C@@H](CC(=O)O)C(=O)N[C@@H](Cc1ccccc1)C(N)=O` [Met-Asp-Phe-NH2] (H-Met-Asp-Phe-NH2), the CCK antagonist/agonist character (CCK receptor) is listed as “can function as CCK antagonists”.
